Experimental data taken from patent publication EP0425235B1, “Cytotoxic agents comprising maytansinoids and their therapeutic use” (IMMUNOGEN INC, priority 1989, dated 1991).
Read-outs that look alike come from different tables or passages of the source.

Experiments:
[1] = tested on: KB (human epidermoid carcinoma); experiment: In vitro cytotoxicity, clonogenic assay (plating efficiency); assay type: cell-based; conditions: for fold more toxic than maytansine: KB and SKBR3 cells, ratio of IC50 values; for times less toxic than L counterpart: D-aminoacyl isomer vs L counterpart (6c, 6e), all three cell lines (KB, SKBR3, Namalwa)
Description: (§1) Cytotoxicity of the maytansinoids and their antibody conjugates to non-adherent cell lines such as Namalwa and HL-60 can be measured by back-extrapolation of cell proliferation curves as described in Goldmacher et al, 135 J. Immunol. 3648-3651 (1985). Cytotoxicity of these compounds to adherent cell lines such as SKBR3 and KB can be determined by clonogenic assays as described in Goldmacher et al, 102 J. Cell Biol. 1312-1319 (1986).
(§2) The disulfide-containing maytansinoid drugs of the invention were evaluated for their ability to suppress proliferation of various human tumor cell lines in vitro. Two adherent cell lines KB (human epidermoid carcinoma) and SKBR3 (human breast tumor) and the non-adherent cell line, Namalwa (Burkitt's lymphoma) were used for the assessment of cytotoxicity of these compounds. Cells were exposed to the compounds for 24 hours and the surviving fractions of cells were measured in direct assays.
(§3) Cells of the human promyelocytic leukemia cell line, HL-60 (ATCC CCL 240) and the Burkitt's lymphoma cell line Namalwa (ATCC CRL 1432) were grown as suspension cultures in RPMI-1640 medium supplemented with 10% fetal calf serum and 2 mM L-glutamine. All other cell lines described below were grown as adherent cultures. Human epidermoid carcinoma cell line, KB (ATCC CCL 17), human renal carcinoma cell line A498 (ATCC HTB 44), human colon adenocarcinoma cell lines SW620 (ATCC CCL 227) and HT-29 (ATCC HTB 38) were grown in RPMI-1640 medium supplemented with 10% fetal calf serum and 2 mM L-glutamine. Human breast carcinoma SKBR3 cells (ATCC HTB 30) were grown in DMEM supplemented with 15% fetal calf serum containing 2 mM glutamine and the human ovarian adenocarcinoma cell line OVCAR3 (ATCC HTB 161) was grown in RPMI-1640 medium supplemented with 10% fetal calf serum containing 10 µg/ml insulin and 2 mM L-glutamine.
(§4) Cytotoxicity assays were performed in the respective media described above. The cytotoxicity of the maytansinoids and their antibody conjugates to HL-60 and Namalwa cells was measured by back-extrapolation of cell proliferation curves. Cytotoxicity of these compounds to the rest of the cell lines was determined using a clonogenic assay as previously described.

[2] = tested on: Namalwa (Burkitt's lymphoma); experiment: In vitro cytotoxicity, growth back-extrapolation; assay type: cell-based, human
Description: as §1, §2, §3, §4

[3] = tested on: SW620 (Colon adenocarcinoma); experiment: In vitro cytotoxicity, clonogenic assay; assay type: cell-based, human; conditions: for IC50: Homo sapiens, read-out: IC50(24hr.exposure)
Method: as §3, §4

A498 (Renal carcinoma) = experiment: In vitro cytotoxicity, clonogenic assay; assay type: cell-based, human; conditions: for IC50: Homo sapiens, A498, 24hr exposure
Method: (§5) Since the methyldithio-maytansinoids are even more toxic than maytansine to solid tumor cell lines like KB and SKBR3, a wider panel of solid tumor cell lines was tested in a manner analogous to that described above to see whether this was a general phenomenon.
as §3, §4

[4] = tested on: P388 lymphocytic leukemia system; conditions: cited from earlier work
[5] = tested on: SKBR3 (human breast tumor); experiment: In vitro cytotoxicity, clonogenic assay (plating efficiency); assay type: cell-based
Description: as §1
as §2, with “Cells were exposed to the compounds for 24 hours and the surviving fractions of cells were measured in direct assays.” left out
as §3, §4

L1210 cells = L1210 cells in vitro; cited from earlier work
[6] = tested on: human acute lymphoblastic leukemia line C.E.M.; conditions: cited from earlier work
[7] = tested on: HL60(Promyelocytic leukemia); experiment: In vitro cytotoxicity, back-extrapolation of cell proliferation curves; assay type: cell-based; conditions: Homo sapiens, HL-60; HL60, 24hr exposure
Method: as §5
as §3, with “Human breast carcinoma SKBR3 cells (ATCC HTB 30) were grown in DMEM supplemented with 15% fetal calf serum containing 2 mM glutamine and the human ovarian adenocarcinoma cell line OVCAR3 (ATCC HTB 161) was grown in RPMI-1640 medium supplemented with 10% fetal calf serum containing 10 µg/ml insulin and 2 mM L-glutamine.” left out
as §4

[8] = tested on: P388, L1210, and LY5178 murine leukemic cell suspensions; conditions: P388, L1210 and LY5178, P388 most sensitive; cited from earlier work
[9] = tested on: Ovcar3 (Ovarian carcinoma); experiment: In vitro cytotoxicity, clonogenic assay; conditions: for IC50: Homo sapiens, OVCAR-3, 24 h, read-out: IC50(24hr.exposure)
Method: as §3, §4

[10] = Homo sapiens, 24 h, KB, 24 hour exposure
[11] = Homo sapiens, 24 h, NAMALWA, 24 hour exposure, read-out: IC50
[12] = Homo sapiens, 24 h, Namalwa, 24hr exposure (Table 2), read-out: IC50(24hr.exposure)
[13] = Homo sapiens, SK-BR-3, 24 h, SKBR3, 24 hour exposure

COc1cc2cc(c1Cl)N(C)C(=O)C[C@H](OC(=O)[C@H](C)N(C)C(=O)CCCSSC)[C@]1(C)O[C@H]1[C@H](C)[C@@H]1C[C@@](O)(NC(=O)O1)[C@H](OC)/C=C/C=C(\C)C2 [Compound 6c]
IC50 [1, 10]: ≤ 0.01 nM
fold more toxic than maytansine [1]: 3-10 fold
IC50 ([1]; KB, 24 hour exposure): 0.0085 nM
IC50 [2, 11]: ≥ 3 nM
IC50 ([2]; NAMALWA, 24 hour exposure, read-out: IC50): 3.2 nM

COc1cc2cc(c1Cl)N(C)C(=O)C[C@H](OC(=O)[C@H](C)N(C)C(C)=O)[C@]1(C)O[C@H]1[C@H](C)[C@@H]1C[C@@](O)(NC(=O)O1)[C@H](OC)/C=C/C=C(\C)C2 [Compound 1a, maytansine, reference compound]
IC50 ([1]; Homo sapiens, 24 h, KB, 24 hour exposure, read-out: IC50): 0.03 nM
IC50 ([1]; Homo sapiens, 24 h, KB, 24hr exposure (Table 2), read-out: IC50(24hr.exposure)): 0.034 nM
IC50 ([3]; SW-620, SW620, 24hr exposure): > 0.1 nM
surviving fraction ([3]; SW620, at 1x10^-10 M): 100%
surviving fraction (A498 (Renal carcinoma); A498, at 1x10^-10 M): 100%
IC50 (A498 (Renal carcinoma)): > 0.1 nM
dosage range over which tumor growth was inhibited [4]: 50- to 100 fold
IC50 ([5]; Homo sapiens, SK-BR-3, 24 h, SKBR3, 24 hour exposure, read-out: IC50): 0.1 nM
IC50 ([5]; Homo sapiens, SK-BR-3, 24 h, SKBR3, 24hr exposure (Table 2), read-out: IC50(24hr.exposure)): 0.11 nM
cells accumulating in mitosis (L1210 cells): 67%
inhibited by concentrations as low as [6]: 10^-7 microgram/ml
IC50 [7]: 0.5 nM
IC50 [2, 11]: 0.4 nM
IC50 [2, 12]: 0.4 nM
inhibited at doses of [8]: 10^-3 to 10^-7 microgram/ml
IC50 [9]: 0.1 nM

COc1cc2cc(c1Cl)N(C)C(=O)C[C@H](OC(=O)[C@H](C)N(C)C(=O)CCS)[C@]1(C)O[C@H]1[C@H](C)[C@@H]1C[C@@](O)(NC(=O)O1)[C@H](OC)/C=C/C=C(\C)C2 [Compound 7b]
IC50 [1, 10]: 0.6 nM
IC50 [5, 13]: < 0.01 nM
IC50 [2, 11]: 10 nM

COc1cc2cc(c1Cl)N(C)C(=O)C[C@H](OC(=O)[C@@H](C)N(C)C(=O)CCSSc1ccccc1)[C@]1(C)O[C@H]1[C@H](C)[C@@H]1C[C@@](O)(NC(=O)O1)[C@H](OC)/C=C/C=C(\C)C2 [Compound 6f]
times less toxic than L counterpart [1]: ≥ 20 times
IC50 [1, 10]: 2 nM
IC50 [2, 11]: 8 nM

COc1cc2cc(c1Cl)N(C)C(=O)C[C@H](OC(=O)[C@@H](C)N(C)C(=O)CCCSSC)[C@]1(C)O[C@H]1[C@H](C)[C@@H]1C[C@@](O)(NC(=O)O1)[C@H](OC)/C=C/C=C(\C)C2 [Compound 6d]
times less toxic than L counterpart [1]: ≥ 20 times
IC50 [1, 10]: 0.19 nM
IC50 [2, 11]: 13 nM

COc1cc2cc(c1Cl)N(C)C(=O)C[C@H](OC(=O)[C@H](C)N(C)C(=O)CCSSC)[C@]1(C)O[C@H]1[C@H](C)[C@@H]1C[C@@](O)(NC(=O)O1)[C@H](OC)/C=C/C=C(\C)C2 [Compound 6b]
IC50 [1, 10]: ≤ 0.01 nM
IC50 ([1]; Homo sapiens, 24 h, read-out: IC50(24hr.exposure), KB, 24hr exposure (Table 2)): 0.011 nM
fold more toxic than maytansine [1]: 3-10 fold
IC50 ([3]; SW-620, 24 h): 0.04 nM
IC50 (A498 (Renal carcinoma)): 0.1 nM
IC50 [5, 13]: ≤ 0.01 nM
IC50 ([5]; SKBR3, 24 hour exposure): 0.011 nM
IC50 ([5]; SKBR3, 72hr exposure): 1x10^-13 Molar
IC50 [7]: 0.8 nM
IC50 [2, 12]: 6 nM
IC50 [9]: 0.05 nM
cytotoxicity relative to maytansine ([9]; OVCAR3): twice as cytotoxic

COc1cc2cc(c1Cl)N(C)C(=O)C[C@H](OC(=O)[C@H](C)N(C)C(=O)CCSSc1ccccc1)[C@]1(C)O[C@H]1[C@H](C)[C@@H]1C[C@@](O)(NC(=O)O1)[C@H](OC)/C=C/C=C(\C)C2 [Compound 6e]
IC50 [1, 10]: 0.1 nM
IC50 [2, 11]: 0.6 nM
